# Values joined by “and” are separate entries in the source; they are usually repeats but may differ in a detail not shown here. Equal values may be shown once.
row,Compound,melting point
1,CC(=O)c1ccccc1[N+](=O)[O-] [2'-nitroacetophenone],27 °C
2,"Clc1ccc(-c2ccnc(Cl)c2)cn1 [6,2'-dichloro-3,4'-bipyridine]",222 °C
3,Cc1ccc(-c2ccc(/C=C/C(=O)c3ccccc3)o2)cc1 [(2E)-3-[5-(4-Methylphenyl)-2-furyl]-1-phenylprop-2-en-1-one],101 °C
4,"COc1cc(OC)cc(C(C)=O)c1 [3,5-dimethoxyacetophenone]",34 °C
5,"Oc1cccc(Cl)c1Cl [2,3-dichlorophenol]",58 °C and 56 °C
6,"CN(C)NC(=O)CCC(=O)O [4-(2,2-Dimethylhydrazino)-4-oxobutanoic acid]",154 °C
7,IC(I)I [iodoform],122 °C
8,O=Cc1ccc2c(c1[N+](=O)[O-])C(=O)c1c(Cl)c(Cl)c(Cl)c(Cl)c1C2=O,267 °C
9,"N#Cc1ccc(C#N)cc1 [1,4-dicyanobenzene]",226 °C
10,N#Cc1cccnc1 [3-cyanopyridine],50 °C
11,C/C(C)=CCN2CC[C@@]1(C)c3cc(O)ccc3C[C@@H]2[C@@H]1C [pentazocin],146 °C
12,"COc1cc(O)cc(OC)c1OC [3,4,5-trimethoxyphenol]",146 °C
13,"Clc1ccc(Cl)cc1 [1,4-Dichlorobenzene]",53 °C
14,O=c1[nH]cc(C(F)(F)F)c(=O)[nH]1 [5-(trifluoromethyl)uracil],253 °C
15,CCNc1nc(NC(C)(C)C)nc(SC)n1 [terbutryne],104 °C
16,Cc1nnc2n1-c1ccc(Cl)cc1C(c1ccccc1Cl)=NC2 [Triazolam],234 °C
17,c1ccc2cc3cc4ccccc4cc3cc2c1 [naphthacene],357 °C
18,C=CC(=C)C [isoprene],-146 °C
19,COC(=O)c1ccc(C=O)cc1 [Methyl 4-formylbenzoate],61 °C
20,Cc1n[nH]c(=S)[nH]c1=O [6-aza-2-thiothymine],220 °C
21,"Clc1cccc(Cl)c1Br [1-bromo-2,6-dichlorobenzene]",66 °C
22,FC(F)(F)C(F)(F)F [Hexafluoroethane],-100 °C

row,Compound,melting point
1,CNC(=O)Oc1cccc2ccccc12 [carbaryl],142 °C
2,"Cc1cc(C)cc([N+](=O)[O-])c1 [5-nitro-1,3-dimethylbenzene]",74 °C
3,CCC1(c2ccccc2)C(=O)NC(=O)NC1=O [phenobarbital],175 °C
4,"COc1cc(OC)c(C=O)c(OC)c1 [2,4,6-trimethoxybenzaldehyde]",121 °C
5,"CCc1cccc(CC)c1NC(=O)CCl [2-chloro-2',6'-diethylacetanilide]",130 °C
6,"COc1ccc(B(O)O)cc1OC [3,4-dimethoxybenzeneboronic acid]",240 °C
7,"Cc1ccc(NC(=S)NN)c(C)c1 [4-(2,4-dimethylphenyl)-3-thiosemicarbazide]",151 °C
8,"Nc1cc(Cl)cc(Cl)c1 [3,5-dichloroaniline]",53 °C
9,S=C=NC(c1ccccc1)(c1ccccc1)c1ccccc1 [triphenylmethyl isothiocyanate],135 °C
10,Cc1cc(C)c(CC#N)c(C)c1 [mesitylacetonitrile],79 °C
11,"O=S(=O)(Cl)c1cccc(Cl)c1Cl [2,3-dichlorobenzenesulfonyl chloride]",60 °C
12,O=C(O)c1ccccc1[N+](=O)[O-] [2-nitrobenzoic acid],148 °C
13,CC(C)OC(=O)Nc1ccccc1 [isopropyl n-phenylcarbamate],88 °C
14,Nc1ccccc1 [aniline],-6 °C
15,C1CCC(C2CCCCC2)CC1 [bicyclohexyl],4 °C
16,O=C(c1ccccc1)N(O)c1ccccc1 [N-benzoyl-N-phenylhydroxylamine],119 °C
17,CC1(C)OC(=O)C(=Cc2cccc([N+](=O)[O-])c2)C(=O)O1,177 °C
18,"Nc1ccc([N+](=O)[O-])cc1[N+](=O)[O-] [2,4-dinitroaniline]",178 °C
19,Cc1cc(Br)ccc1N [4-bromo-2-methylaniline],52 °C
20,OC[C@@H]1CCCN2CCCC[C@H]12 [lupinine],64 °C
21,Cc1ccc(C(=O)Cl)cc1 [p-toluoyl chloride],-2 °C
22,O=C1CC(=O)NC(=O)N1 [Barbituric acid],248 °C

# Continued, values first:
row,melting point,Compound
1,72 °C,"CCCCNC(=O)NCCCC [N,N'-di-n-butylurea]"
2,111 °C,"CC(N)(CO)CO [2-Amino-2-methylpropane-1,3-diol]"
3,-10 °C,CCCCCCCCCCCC [dodecane]
4,238 °C,CC(=O)N(C1=NC(=O)/C(=C/c2cc(C)n(-c3ccccc3)c2C)S1)c1ccccc1 [OSM-S-49]
5,116 °C,CCOC(=O)c1ccc(O)cc1 [Ethyl 4-hydroxybenzoate]
6,24 °C,"C=CCn1c(=O)n(CC=C)c(=O)n(CC=C)c1=O [1,3,5-Triallyl-1,3,5-triazinane-2,4,6-trione]"
7,-105 °C,COCOC [dimethoxymethane]
8,160 °C,"COc1ccc(C(=O)CCC(=O)O)cc1OC [3-(3,4-dimethoxybenzoyl)propionic acid]"
9,-31 °C,Ic1ccccc1 [iodobenzene]
10,199 °C,CCCN(CCC)S(=O)(=O)c1ccc(C(=O)O)cc1 [probenecid]
11,-98 °C,COC(C)=O [methyl acetate]
12,154 °C,O=C(O)c1cc(Cl)ccc1Br [2-bromo-5-chlorobenzoic acid]
13,128 °C,COC(=O)c1c(N)sc2c1CCCC2
14,234 °C,"O=CNC1C/C=C/CC(NC=O)C/C=C/C1 (stereo not given) [N,N'-(3E,8E)-cyclodeca-3,8-diene-1,6-diyldiformamide]"
15,-118 °C,"C[C@H]1CCC[C@@H]1C (relative stereo) [trans-1,2-dimethylcyclopentane]"
16,164 °C,N=C(N)NCC1COc2ccccc2O1 (stereo not given) [guanoxan]
17,220 °C,CCn1cc(C(=O)O)c(=O)c2cc(F)c(N3CCNCC3)cc21 [norfloxacin]
18,162 °C,O=C1CC[C@@H](C(=O)O)N1 [5-Oxo-L-proline]
19,82 °C,"CCN(CC)c1ccc(N=O)cc1 [N,N-diethyl-4-nitrosoaniline]"
20,34 °C,"Oc1c(F)ccc(F)c1F [2,3,6-trifluorophenol]"
21,80.5 °C,CCCCCCC(O)CCCCCCCCCCC(=O)O (stereo not given) [12-Hydroxyoctadecanoic acid]

row,melting point,Compound
1,6 °C,CC1(C)C(=O)[C@@]2(C)CC[C@@H]1C2 [fenchone]
2,2 °C,"CC1(C)O[C@]2(C)CC[C@H]1CC2 [(1s,4s)-1,3,3-Trimethyl-2-oxabicyclo[2.2.2]octane]"
3,35 °C,O=C1CCCCCCCCCCCCCCO1 [pentadecanolide]
4,-20 °C,NCc1ccccn1 [2-(aminomethyl)pyridine]
5,253 °C,c1ccc2c(c1)ccc1c3ccccc3ccc21 [Chrysene] [listing 1 of 2 here]
6,110 °C,CC(C(=O)O)c1ccc(-c2ccccc2)c(F)c1 (stereo not given) [Flurbiprofen] [listing 1 of 2 here]
7,253 °C,O=C(O)c1ccc(Br)cc1 [4-bromobenzoic acid]
8,-91.5 °C,CCCCC=O [Pentanal]
9,-10 °C,COc1ccc(CN)cc1 [4-methoxybenzylamine]
10,-50 °C,CCCC(C)O (stereo not given) [Pentan-2-ol]
11,-66 °C,CCCCCCC(=O)OCC [ethyl heptanoate]
12,-51 °C,c1ccc2c(c1)CCC2 [indane]
13,141 °C,"O=C1C=C(NCCNc2ccccc2)C(=O)c2ccccc21 [2-{[2-(phenylamino)ethyl]amino}naphthalene-1,4-dione]"
14,192 °C,"NC(=O)c1ccc(Cl)cc1Cl [2,4-dichlorobenzamide]"
15,28 °C,N#CCc1cccc(Br)c1 [m-bromophenylacetonitrile]
16,7 °C,CCCCCCCCCCO [1-decanol]
17,91 °C,"CCCCc1c2c(cc3c1-c1ccccc1OC3)CCCC2=O [12-Butyl-9,10-dihydro-6H-naphtho[2,3-c]chromen-11(8H)-one]"
18,2 °C,CC1=CC(=O)CC1 [3-methyl-2-cyclopenten-1-one]
19,119 °C,NNC(=O)c1ccc(C(F)(F)F)cc1 [4-(trifluoromethyl)benzhydrazide]
20,81 °C,OCc1ccccc1Br [o-bromobenzyl alcohol]
21,81 °C,CCCCCCn1c(=O)c2c(ncn2C)n(C)c1=O [1-n-hexyltheobromine]

row,melting point,Compound
1,73 °C,N#CCC(=O)N1CCCC1 [1-(cyanoacetyl)pyrrolidine]
2,131 °C,CC(C)(C)c1ccc(C2CCC3(CC2)Cc2ccc(O)cc2C3)cc1 (stereo not given)
3,-60 °C,CC(O)CO (stereo not given) [Propylene glycol]
4,255 °C,N=c1nc(O)c2ncn(COCCO)c2[nH]1 [Acyclovir]
5,191 °C,"O=C(O)[C@H]1CCCC[C@H]1C(=O)O [cis-1,2-cyclohexanedicarboxylic acid]"
6,255 °C,c1ccc2c(c1)ccc1c3ccccc3ccc21 [Chrysene] [listing 2 of 2 here]
7,-51 °C,O=C1CCCC1 [cyclopentanone]
8,-40 °C,OO [Hydrogen peroxide]
9,120 °C,Cc1c(O)cccc1O [2-methylresorcinol]
10,74 °C,OCCC12CC3CC(CC(C3)C1)C2 [1-adamantaneethanol]
11,165 °C,CC(=O)OC1(C(C)=O)CCC2(C)C(CCC3C4CCCC4(C)CCC32)C1 (stereo not given) [3-acetylandrostan-3-yl acetate]
12,44.5 °C,COc1cccc(C=O)c1O [o-vanillin]
13,110 °C,CC(C(=O)O)c1ccc(-c2ccccc2)c(F)c1 (stereo not given) [Flurbiprofen] [listing 2 of 2 here]
14,169 °C,"O=C1CCC(c2ccc(Br)cc2)=NN1 [6-(4-bromophenyl)-4,5-dihydro-3(2h)-pyridazinone]"
15,205 °C,CCOC(=O)C1=C(C)NC(=S)NC1c1ccccc1 (stereo not given)
16,123 °C,OB(O)c1cccc(OCc2ccccc2)c1 [3-benzyloxybenzeneboronic acid]
17,-106 °C,CCSC [ethyl methyl sulfide]
18,50 °C,CCCCCCCCCCCCCCCCO [Hexadecan-1-ol]
19,-5 °C,CCCCCCCCCCCCC [N-tridecane]

# Reference: the Bradley open melting point set (2014)
